In US6783949B1, “Processes for determining whether a test substance contains lipases or lipase inhibitors” (Aventis Pharma Deutschland GmbH, priority 1999, dated 2004):
“And” between values parts separate entries of the source, which are not always exact repeats. Identical values can stand only once.

Legend:
HSL [1] = target: T1, HSL (Rattus norvegicus, UniProt P15304); test: PNPB assay; type: biochemical; conditions: Example 6, Table 6; n=5, mean±SD
T1 construct: The partially purified HSL can be stored at −70° C. for 4 to 6 weeks; from tissue; host or cells: rat epididymal fat cells (male Wistar rats)
T1 sequence (P15304 1-768 isoform P15304-2): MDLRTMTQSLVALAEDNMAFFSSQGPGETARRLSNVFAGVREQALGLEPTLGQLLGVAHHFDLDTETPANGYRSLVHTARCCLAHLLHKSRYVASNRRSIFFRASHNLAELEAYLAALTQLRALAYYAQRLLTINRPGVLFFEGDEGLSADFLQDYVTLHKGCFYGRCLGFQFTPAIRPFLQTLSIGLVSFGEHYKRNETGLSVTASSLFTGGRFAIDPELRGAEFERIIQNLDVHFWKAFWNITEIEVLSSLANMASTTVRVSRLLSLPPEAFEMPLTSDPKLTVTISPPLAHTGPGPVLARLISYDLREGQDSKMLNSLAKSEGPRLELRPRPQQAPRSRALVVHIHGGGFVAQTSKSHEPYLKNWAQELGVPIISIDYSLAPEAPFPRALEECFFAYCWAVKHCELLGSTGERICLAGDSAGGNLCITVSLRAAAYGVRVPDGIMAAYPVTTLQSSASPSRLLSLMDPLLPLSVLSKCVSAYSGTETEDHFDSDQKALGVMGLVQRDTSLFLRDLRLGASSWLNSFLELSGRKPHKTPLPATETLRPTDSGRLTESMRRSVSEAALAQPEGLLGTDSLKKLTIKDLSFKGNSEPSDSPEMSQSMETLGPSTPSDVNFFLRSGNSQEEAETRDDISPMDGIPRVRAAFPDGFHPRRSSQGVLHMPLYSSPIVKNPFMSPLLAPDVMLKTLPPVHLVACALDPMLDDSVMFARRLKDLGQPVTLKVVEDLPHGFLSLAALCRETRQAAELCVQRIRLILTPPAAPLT
Protocol: (§1) Isolated rat fat cells are obtained from epididymal fatty tissue from untreated male rats (Wistar, 220-250 g) by collagenase treatment according to published processes. The fat cells from 10 rats are washed three times by flotation with 50 ml each of homogenization buffer ([…], pH 7.4, 0.25 M sucrose, 1 mM ethylenediamine-N,N,N′,N′-tetraacetic acid (EDTA), 1 mM dithiothreitol (DTT), 10 μg/ml of leupeptin, 10 μg/ml of antipain, 20 μg/ml of pepstatin) and finally taken up in 10 ml of homogenization buffer. The fat cells are homogenized in a Teflon-in-glass homogenizer (Braun-Melsungen) by 10 strokes at 1500 rpm and 15° C. The homogenizate is centrifuged (Sorvall SM24 tubes, 5000 rpm, 10 min, 4° C.). […]
10 μl of p-nitrophenyl butyrate (PNPB)(2 mM in acetonitrile), 890 μl of 0.1 M KPi (pH 7.25), 0.9% NaCl, 1 mM DTT, and 100 μl of HSL (prepared as above, diluted in this buffer) are incubated at 37° C. for 10 min. […] An equivalent volume of the upper phase is then taken and the absorption is determined at 400 nm.
Substances are customarily tested in four independent batches. The inhibition of the enzymatic activity of the HSL by a test substance is determined by comparison with an uninhibited control reaction. The IC50 value is calculated by means of an inhibition curve using at least 10 concentrations of the test substance. […]

HSL [2] = target: T1, HSL; test: TAG assay ([3H]trioleoylglycerol cleavage); type: biochemical
Protocol: as §1, with “C.” for “C. The homogenizate is centrifuged (Sorvall SM24 tubes, 5000 rpm, 10 min, 4° C.).”
For the preparation of the substrate, 25-50 μCi of [^3H]trioleoylglycerol (TAG)(in toluene), 6.8 μMol of unlabeled trioleoylglycerol, and 0.6 mg of phospholipids (phosphatidylcholine/phosphatidylinositol 3:1 w/v) are mixed, dried over N2, and then taken up in 2 ml of 0.1 M potassium dihydrogenphosphate/potassium phosphate buffer (KPi)(pH 7.0) by ultrasonic treatment (Branson 250, microtip, setting 1-2, 2×1 min at a 1 min interval). […] After phase separation, one equivalent of the upper phase (1 ml) is taken and the radioactivity is determined by liquid scintillation measurement.
Substances are customarily tested in four independent batches. […] The IC50 value is calculated by means of an inhibition curve using at least 10 concentrations of the test substance. […]

Compound: O=C(CCCCCCCCCCCNc1ccc([N+](=O)[O-])c2nonc12)OCC(O)CO (racemic) [Compound 3]
- IC50 (HSL [1]): > 100 µM
- IC50 (HSL [2]): 15.3 µM and 17.3 µM
